Test results from patent US20250101448A1, “Protein, Gene and Their Vectors and Applications that Control Symbiotic Nitrogen Fixation Efficiency of Soybeans” (priority 2022, published 2025).

Key:
GmNAP1 protein = assay: isothermal titration calorimetry, binding of GmNAP1 to AMP/ADP/ATP/cAMP; design: species or system soybean; settings: ITC, GmNAP1 expressed in Escherichia coli and purified
From the text: (§1) Utilize the prokaryotic expression system of Escherichia coli to express and purify GmNAS1 and GmNAP1 proteins; and then utilize isothermal titration calorimetry to detect the binding ability of GmNAS1/GmNAP1 to AMP, ADP, ATP and cAMP.

GmNAS1 protein = assay: isothermal titration calorimetry, binding of GmNAS1 to AMP/ADP/ATP/cAMP; design: species or system soybean; settings: ITC
From the text: as §1

[1] = system: GmNAS1 protein lacking any one CBS functional domain; assay: isothermal titration calorimetry, GmNAS1 protein lacking a CBS functional domain, binding to AMP; design: species or system soybean; settings: ITC
From the text: as §1

[2] = system: interaction between GmNAS1 and GmNFYC10a; assay: pull-down of GmNAS1 and GmNFYC10a interaction; assay type: binding, soybean
GmNFYC10a-GFP = GmNFYC10a-GFP fluorescence localization in sections of mature root nodules; assay type: cell-based, soybean; settings: nodule sections treated for 2 hours, 25 days after inoculation with Rhizobia
From the text: This application also uses co-immunoprecipitation coupled mass spectrometry analysis technology to search for candidate proteins that bind to GmNAP1. In the mass spectrometry results, a transcription factor GmNFYC10a is discovered. […] In order to verify this speculation, we first obtains GmNFYC10a-GFP transgenic hairy roots, and carrying out vibration sectioning of mature root nodules 25 days after inoculation with Rhizobia. […] (FIG. 14).

soybean root nodules = assay: nodule nitrogenase activity after sucrose treatment of plants inoculated with USDA110; assay type: in vivo; settings: wild-type W82, 3% (w/v) sucrose solution for three days
Protocol: Design editing site identification primers based on the target sequences of sgRNA on GmNAS1 and GmNAP1, amplify the corresponding fragments and send them for sequencing. The sequencing results are analyzed and four function loss mutants of cr-nas1, cr-nap1, cr-nas1nap1-1 and cr-nas1nap1-2 are obtained. The nodule number, nodule weight and nodule nitrogenase activity on the 25th day after the mutant plants are inoculated with Rhizobia USDA110 are measured.
By utilizing gene editing technology, we obtain the functional knockout mutant cr-nas1 of GmNAS1, the functional knockout mutant cr-nap1 of GmNAP1, and the double knockout mutants cr-nas1nap1-1 and cr-nas1nap1-2 of GmNAS1 and GmNAP1. The root nodules of these four soybean mutants are phenotypically determined 25 days after inoculation with USDA110.

[3] = system: soybean root nodule cells; assay: GmNFYC10a nuclear protein level and glycolysis gene expression in root nodules before and after sucrose treatment; assay type: in vivo; settings: after sucrose treatment

Which “binding to GmNAP1” value (GmNAP1 protein) does the source give for `Nc1ncnc2c1ncn2[C@@H]1O[C@H](COP(=O)(O)OP(=O)(O)O)[C@@H](O)[C@H]1O` [ADP] here?
The value was “does not bind”.

For `Nc1ncnc2c1ncn2[C@@H]1O[C@H](COP(=O)(O)OP(=O)(O)OP(=O)(O)O)[C@@H](O)[C@H]1O` [ATP], which “binding to GmNAS1” value (GmNAS1 protein) is on record?
Its value is “does not bind”.

What about the “binding to GmNAP1” value (GmNAP1 protein) of the same molecule?
The value was “does not bind”.

How did the “binding to GmNAP1” value (GmNAP1 protein) turn out when `Nc1ncnc2c1ncn2[C@@H]1O[C@H](COP(=O)(O)O)[C@@H](O)[C@H]1O` [AMP] was run?
Its value is “does not bind”.

And the “binding to GmNAS1 protein lacking any one CBS functional domain” value [1]?
The value was “not capable of binding”.

And the “effect on interaction between GmNAS1 and GmNFYC10a” value [2]?
The value was “significantly inhibit”.

And the “GmNFYC10a-GFP fluorescence in the nucleus” value (GmNFYC10a-GFP)?
Its value is “increased significantly”.

What does the source list for `OC[C@H]1O[C@@](CO)(O[C@H]2O[C@H](CO)[C@@H](O)[C@H](O)[C@H]2O)[C@@H](O)[C@@H]1O` [sucrose]?
nitrogenase activity of wild-type plants vs plants without sucrose (soybean root nodules): significantly higher; protein content of GmNFYC10a in the nucleus ([3]; nuclei of soybean root nodule cells): decreases significantly; expression of glycolysis-related genes ([3]; root nodules): significantly down-regulated

For `CC[C@H]1/C=C/C=C/C[C@@H](C)[C@H](O)[C@@](C)(O)C(=O)[C@@H](C)[C@H](O)[C@@H](C)C(=O)[C@@H](C)[C@H](O)[C@@H](C)/C=C/C(=O)O[C@@H]2[C@H](C)[C@H](CC1)O[C@]1(CC[C@H](C)[C@H](C[C@@H](C)O)O1)[C@H]2C` [oligomycin], which “GmNFYC10a-GFP fluorescence in the nucleus” value (GmNFYC10a-GFP) is on record?
The value was “increased significantly”.
